Measured values published in a melting point compilation (Tetko et al.; mined from patent text by program, amines drawn as free bases though some values may be those of a salt).

SMILES | melting point [°C]
CC(=O)c1ccc(OCCCOc2cc([N+](=O)[O-])c(C)cc2Br)c(CCC(F)(F)F)c1O | 106 to 109
CCCC(=O)Nc1cc([N+](=O)[O-])c(Sc2cccc3cnccc23)cc1N | 191 to 192
Cc1c(SCCCSc2sccc2[N+](=O)[O-])ccnc1CO | 134 to 138
CC1=C(CNC(=O)NC(C)C)c2cc(F)ccc2/C1=C\c1ccc(S(C)(=O)=O)cc1 | 217
Cn1cc(C2=C(c3c4n(c5ccccc35)CCC(COS(C)(=O)=O)C4)C(=O)NC2=O)c2ccccc21 (stereo not drawn) | 259 to 261
CCOC(=O)C1Oc2ccc(Cl)cc2C(C)(c2ccccc2)O1 (stereo not drawn) | 92
CC(C)(C)OC(=O)N1CCC=C(c2ccnc(C(=O)N(O)Cc3ccccc3)c2)C1 | 128 to 134
CCc1csc(NC(=O)Nc2ccc(N3CCN(C(=O)Nc4ccc(OCCO)cc4C(F)(F)F)CC3)cc2)n1 | 124 to 125
Cc1ccccc1C(=NC(=Nc1ccccc1)C1(C)CCCCC1)Nc1ccc(F)cc1 | 210 to 211
Cc1nn(C)c2cc(-c3nn(C(C)c4oc5ccccc5c(=O)c4-c4cccc(F)c4)c4ncnc(N)c34)ccc12 (stereo not drawn) | 270 to 272
CCC1(c2ccccc2)Cc2cc(OCC(=O)O)c(Cl)c(Cl)c2C1=O (stereo not drawn) | 187 to 189
CC(C)Nc1ccc(NC(=O)C2(C)CC2)cc1C(F)(F)F | 100 to 102
O=C(O)CCCc1cc2nc(Cl)ccc2n1S(=O)(=O)c1ccc(-n2cccn2)cc1 | 196 to 207
CCOC(=O)COc1ccc([N+](=O)[O-])cc1OC | 87 to 88
CCOC(=O)c1cn(-c2ccc(F)cn2)c2c(F)c(F)c(F)cc2c1=O | 203 to 205
CC(=O)c1cccc(NC(=O)C2CCC2)c1 | 155 to 157
CCCCCc1cc2c(nc(O)n2CC2CCN(C(C)=O)CC2)c(N)n1 | 228 to 231
N#Cc1ccc(NN)cc1 | 84 to 87
Nc1c(Br)cc(S(=O)(=O)Cl)cc1Br | 153 to 155
N#Cc1c(N2CCN(C(=O)c3cccs3)CC2)c2cscc2n(CC(=O)c2ccccc2)c1=O | 308
O=C(O)CN1C(=O)C(NC(=O)Nc2cccc3ccccc23)CCc2ccccc21 (stereo not drawn) | 215 to 216
COc1ccc(N2CCN(c3ccc(NC4=NCC(OC)S4)cc3)CC2)cc1 (stereo not drawn) | 178
COC(=O)c1cccc2c1Nc1c(I)cccc1C2 | 105 to 107
CCN1C(=O)C(C)(C)C(=O)N(C)c2cc(CN(CCc3cccnc3)Cc3scnc3C)ccc21 | 118 to 120
CC(C)c1ccc(-c2nn(C)c(=O)c3ccccc23)cc1 | 107 to 108

SMILES | melting point [°C]
COc1ccc(CSCC(C(=O)O)C(F)(F)F)cc1 (stereo not drawn) | 72 to 74
Cc1ccc(-c2nc3c(C)cccc3c(=O)[nH]2)c(Cl)c1 | 234
CC(=O)Nc1ccc(OCc2nc3ccccc3s2)cc1 | 168 to 170
Ic1cccc(OCc2ccc3ccccc3c2)c1 | 111 to 112
COc1ccc(C2CCCN2S(=O)(=O)c2ccc(Cl)cc2)cc1 (racemic) | 133
Cc1ccc(-c2c(C(=O)NCc3cc(C(F)(F)F)cc(C(F)(F)F)c3)n(CCO)c(=O)c3ncccc23)cc1 | 123 to 125
NC(=O)N(O)Cc1ccc(OCc2coc(-c3ccc(C(F)(F)F)cc3)n2)cc1 | 128 to 130
COC(=O)CCCC(=N)Nc1[nH]c2ccccc2c1C(=O)OC | 95
Cc1cccc2c1cc(C(=O)NCC1CCN(CC3(O)CCOCC3)CC1)c(=O)n2C(C)C | 222
Cc1c(NC(=O)c2ccc(-c3ccc(Cl)s3)cc2F)ccc2cc(CN3CCCCCC3)cnc12 | 166 to 167
COC(=O)c1ccccc1-n1c(CCl)nc2cc(Cl)ccc2c1=O | 150 to 152
CCOC(=O)c1cnc2onc(C)c2c1N(C)S(=O)(=O)c1ccc(Oc2ccncc2)cc1 | 155 to 157
CC1C(=O)N(c2ccc(Cl)cc2)C(=S)N1c1ccc(Cc2ccccc2)cc1 (stereo not drawn) | 144
CCCn1c(-c2c(Cl)cccc2Cl)nc(-c2ccncc2)c1-c1ccc(Cl)cc1 | 220 to 222
O=C(O)c1ccc(COCc2csc3nc(C(=O)NCc4ccc(F)c(Br)c4)[nH]c(=O)c23)cc1 | 231 to 233
CCCCCCCCCCCCCCCC(=O)C1C(=O)CC(C#N)CC1=O (stereo not drawn) | 66 to 69
N#Cc1cc(C(N)=O)ccc1Cl | 193
CCOC(=O)c1nnc2ccc(I)cc2c1O | 242 to 244
CC1c2ccccc2-c2ccccc2N1S(=O)(=O)c1ccc(O)c(O)c1 (stereo not drawn) | 163 to 165
Cc1cc(S(N)(=O)=O)ccc1NC(=O)CNc1ccccc1 | 195 to 196
O=c1c(CCCc2cnccn2)cc2cccnc2n1-c1cccc([N+](=O)[O-])c1 | 194 to 195
COc1ccc2cc(C3CCN(CC(O)COc4ccccc4C=C4CCOC4=O)CC3)ccc2c1 (stereo not drawn) | 148 to 150
N#Cc1cccc(CN2CCc3ccc(C(=O)CCCC4CCN(Cc5ccccc5Cl)CC4)cc3CC2)c1 | 121 to 122
CCOC(=O)c1nn(-c2ccc(OC)cc2)c2c1CCC2 | 108 to 109
COc1ccccc1SCC(O)CN(C)Cc1cc2c(=O)c(C(=O)NCc3ccc(Cl)cc3)cn(C)c2o1 (stereo not drawn) | 145 to 147

SMILES | melting point [°C]
CC12C=CC(=O)C=C1CCC1C2C(O)CC2(C)C1CC(OCCO)C2(O)C(=O)CO (stereo not drawn) | 138 to 140
CCCC1(OC(C)=O)CCC2C3CCC4CC(=O)CC(C)C4(C)C3CCC21C (stereo not drawn) | 128 to 129
Cc1cc(COc2c(Cl)cc(C=O)cc2Cl)oc(=O)c1 | 180
CC(=O)OCC1OC(N(CCCl)P(=O)(O)NCCCl)C(OC(C)=O)C(OC(C)=O)C1OC(C)=O (stereo not drawn) | 91
COC(=O)c1ccc(COc2cc(F)ccc2N)c(F)c1 | 92 to 95
C=C(C)C(=O)NCCC#N | 46 to 48
CC1=NNC(=O)N(N=Cc2cccnc2C)C1 | 226 to 229
O=c1c(Cc2ccccc2)cn2c3ccc(Cl)cc3c3cc(Cl)cc1c32 | 206 to 209
NC(=O)c1ccc(-c2cc3cc(C4=NNC(=O)CC4)ccc3[nH]2)cc1 | > 300
COC(=O)C1=CON2CCC34C=CC(O)CC3Oc3c(OC)ccc(c34)C12 (stereo not drawn) | 151 to 154
CC(C)(CO)CCCCN1C(=O)c2ccccc2C1=O | 74.8 to 75
COc1cc(OC)c(C)c(C(=O)NCC23CC4CC(CC(C4)C2)C3)c1 | 173 to 175
CCOC(=O)Cc1ccc(CCN2CCN(C(=O)C=Cc3cc(C(C)(C)C)c(O)c(C(C)(C)C)c3)CC2)cc1 | 111 to 113
CC(C)=C1c2ccccc2-c2ccccc21 | 112 to 113
Nc1ccccc1NC(=O)c1cc2cc(OCCN3CCOCC3)ccc2s1 | 166 to 169
CC(Br)c1ccc(-n2nccn2)cn1 (stereo not drawn) | 72 to 73
CCCCNc1nc2cccc(C(=O)OC)c2n1Cc1ccccc1-c1ccccc1-c1nnn[nH]1 | 216 to 218
N=C(N)Nc1nc(C(=O)Nc2cccc(C(=O)NC(CC(=O)O)c3ccccc3)c2)cs1 (racemic) | 235
Fc1ccc(-c2nc3ccccn3c2-c2ccnc(-c3ccc(CN4CCCC4)cc3)c2)cc1F | 155
CCOC(=O)C(C=O)Cc1ccc(C)nc1 (stereo not drawn) | 142 to 144
CC(=O)c1ccc(SC(=O)N(C)C)cc1OCC(=O)O | 173 to 174
Nc1sc2c(c1C(=O)c1ccc(Cl)cc1)CCSC2 | 142 to 146
N#CCc1cc(Cl)c(C(=O)c2ccc(Cl)cc2)[nH]1 | 194 to 197
CC(=O)Nc1ccn([C@@H]2[C@H](O)[C@H](O)CC[C@H]2OC(C)=O)c(=O)n1 (racemic) | 249
CC(C)(C)OC(=O)N[C@H](C(=O)Br)c1ccccc1 | 108 to 109

SMILES | melting point [°C]
NC(=O)c1cc2cc(Br)ccc2o1 | 210 to 213
CC1(C)OCC(COc2ccc(Br)cc2C23CC4CC(CC(C4)C2)C3)O1 (stereo not drawn) | 91
OC(c1ccncc1)c1c[nH]c2ccc(F)cc12 (stereo not drawn) | 171 to 173
CCCCCCCCCCCCc1ccc(N)c([N+](=O)[O-])c1 | 69 to 71
NCCN1CCN(CC(=O)N2c3ccccc3C(=O)Nc3cccnc32)CC1 | 188 to 190
CC(=O)Nc1cc(Oc2c(Cl)cc(-n3ncc(=O)[nH]c3=O)cc2Cl)ccc1O | 101 to 109
Clc1cc(Cl)n2ncc(Br)c2n1 | 73 to 75
NNC(=O)CCCCCCCCOC1OC(CO)C(O)C(O)C1O (stereo not drawn) | 194
CCOC(=O)c1c(C(F)(F)F)nc(-c2cccs2)c(-c2ccccc2)c1O | 136
Cc1nc(-c2cc(CCc3ccccc3)no2)sc1C(=O)NCc1ccccc1 | 114 to 115
CCCOc1ccc(C2CCCN3CCS(=O)(=O)N=C23)cc1 (stereo not drawn) | 169 to 170
Cc1ccc(-c2ccc3c(c2)C=C(C(=O)Nc2ccc(CCN4CCCCC4)cc2)CCO3)cc1 | 201 to 202
O=C1C=C(c2ccc(OC(F)(F)F)cc2)CO1 | 122 to 123
CCOC(=O)COc1cc(-n2nc(C)c(Cl)c2C)c(F)cc1Cl | 101 to 104
O=C(Nc1cc(-c2nc3ccccc3[nH]2)ccn1)c1ccccc1 | 145 to 146
Cc1ccc(-c2ccc(Sc3ccccc3)s2)cc1 | 85 to 86
CC(C)C[C@H]1[C@@H]2C(=O)N(Cc3ccccc3)C(=O)[C@@H]2[C@H](c2ccc(C#N)cc2)N1C (racemic) | 173 to 174
Cc1c(SCCCN2CCNCC2)ccnc1CNc1cnc2ccccc2c1 | 105 to 108
O=C(N[C@H](Cc1ccc(C(F)(F)F)cc1)[C@@H](O)c1ccc(F)cc1)c1ccc(Oc2ccccc2)cc1 (racemic) | 186 to 187
COc1ccc(N(C)CCN(C)CCCN2CCc3cc(OC)c(OC)cc3NC2=O)cc1OC | 117 to 119
O=CC1=C(Cl)C(=CO)CCC1 | 127
Cc1nc2c3c(c(C(=O)O)cc2n1C)CCC(c1ccccc1)O3 (stereo not drawn) | 323 to 326
N=C(N)Nc1nc(CSCCNC(N)=N[N+](=O)[O-])ns1 | 184 to 186
